The results in this text go back to patent US11629171B2, “Beta-hairpin peptidomimetics” (POLYPHOR AG, priority 2017, dated 2023).

The test system of data set [1] is Acinetobacter baumannii 872842. Type of data set: cell-based. Particulars: 872842. In a few lines: (§1)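 CLSI broth microdilution in cation-adjusted Mueller-Hinton II broth with 0.002% polysorbate 80 (final), inoculum appr. 10^6 CFU/mL, peptides in serial two-fold dilutions. MIC (μg/mL) is the lowest concentration without visible growth after 18-20 h at 35° C.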
Data set [2] deals with Acinetobacter baumannii DSM 30008. The data set is classed as cell-based. Conditions: DSM 30008. In short, it runs like this: as §1
In data set [3] the test system is Enterobacter cloacae 848840. Type of data set: cell-based. Conditions: 848840. In short, it runs like this: as §1
In a further data set the test system is Escherichia coli 926415. The data set is classed as cell-based. Conditions: 926415. In a few lines:
as §1

Data set [4] deals with Escherichia coli ATCC 25922. The data set is classed as cell-based. Particulars: ATCC 25922. In short, it runs like this: as §1
The test system of data set [5] is Klebsiella pneumoniae 968733. The data set is classed as cell-based. Particulars: 968733. In a few lines:
as §1

Data set [6] relates to Klebsiella pneumoniae SSI #3010. The data set is classed as cell-based. Particulars: SSI #3010. In a few lines:
as §1

In data set [7] the test system is Pseudomonas aeruginosa ATCC 27853. The data set is classed as cell-based. Particulars: ATCC 27853. In a few lines:
as §1

Data set [8] deals with human red blood cells (hRBC). In words: Hemolysis. Type of data set: cell-based. Conditions: red cells of human, 1 h, 200. In a few lines:
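Read-out is supernatant absorbance at 540 nm, normalised to full lysis by 2% Triton X-100 and zero lysis by PBS with 10% water. Peptides (200 μg/mL) were exposed to 20% v/v washed human erythrocytes at 37° C for 1 h under shaking.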

For another data set, the system named is male ICR mice. In words: Tolerability in a mouse model (Maximum Tolerated Dose assay). Type of data set: in vivo. Conditions: 2 × 40 mg/kg s.c. at a 12-hr interval, groups of 3. In a few lines: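 Peptides in 0.9% NaCl (pH 6.5-7.6) given s.c. at 30 or 40 mg/kg, twice 12 h apart, to groups of 3 male ICR mice (23±3 g). Acute toxic signs (mortality, convulsions, tremors, sedation) and autonomic effects (diarrhea, salivation, piloerection) observed for 30 min after each dose.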

Values after ≈ are worked out from the molar mass of the structure shown. Where a SMILES comes first, the peptide text is derived from it. Bridges are numbered along the chain shown (N, C = ends). Roman numbers before positions name the chains, in order. [ ]: non-standard residue; d: D form. dDab = NCC[C@@H](N)C(=O)O; Dab = NCC[C@H](N)C(=O)O; Dap = NC[C@H](N)C(=O)O Bounds are passed on as bounds.

In general, MIC refers to the lowest concentration that inhibits growth of the organism. Read a high MIC as a less susceptible organism. In the case of `CC[C@H](C)[C@@H]1NC(=O)[C@H](CO)NC(=O)[C@H](Cc2c[nH]c3ccccc23)NC(=O)[C@H](CO)NC(=O)[C@@H](CCN)NC(=O)[C@H](CCC(=O)N[C@@H](CCN)C(=O)N[C@H](C(=O)N[C@@H](CN)C(=O)N[C@H]2CCNC(=O)[C@H]([C@@H](C)O)NC(=O)[C@H](CCN)NC(=O)[C@H](CCN)NC(=O)[C@H]([C@@H](C)O)NC(=O)[C@@H](CC(C)C)NC(=O)[C@H](CCN)NC2=O)[C@@H](C)O)NC(=O)[C@H](CCN)NC(=O)[C@H](Cc2ccc(O)cc2)NC(=O)[C@@H](NC(=O)[C@@H](NC(C)=O)C(C)C)CSSC[C@@H](C(=O)N[C@@H](CO)C(=O)N[C@H](C)C(N)=O)NC1=O` [Ex. 380] (I: Ac-VCY[Dab]E[dDab]SWSICS[dA]-NH2 / II: [Dab]T[Dap][Dab][Dab][dL]T[Dab][Dab]T; disulfide I:2-I:11; amide I:5-II:N; lactam II:4-II:C), the MIC was 0.25 µg/mL (≈ 0.101 µM) in data set [1], 0.125 µg/mL (≈ 0.0506 µM) in data set [3], 0.125 µg/mL (≈ 0.0506 µM) against Escherichia coli 926415 and 0.5 µg/mL (≈ 0.202 µM) in data set [5]. Also, the “Acinetobacter baumannii DSM 30008 MIC” value in data set [2] was 0.0625 µg/mL. In data set [4], the “Escherichia coli ATCC 25922 MIC” value came out at 0.03125 µg/mL. For the same compound, the “Klebsiella pneumoniae SSI #3010 MIC” value in data set [6] came out at 0.0625 µg/mL. Further, the “Pseudomonas aeruginosa ATCC 27853 MIC” value in data set [7] is 0.125 µg/mL. Besides, in [8], the “Hemolysis at 200 μg/mL” value is recorded as less than 1%. Further, in the data set with male ICR mice, the Mortality and dose is given as 0/3 died at 2 × 40 mg/kg.
